Assay results published in patent publication US20040219232A1, “Methods and compounds for treating malabsorption diseases and inflammatory conditions of the gastrointestinal tract” (Zengen, Inc., priority 2003, published 2004).
Entries after “also recorded” stand apart in the source; their conditions may differ. Where no end group is shown, it is not given here. [ ]: non-standard residue; d: D form. dNle = CCCC[C@@H](N)C(=O)O

Legend:
[1] = compared with L-form tripeptide; cited from earlier work
[2] = Potency/efficacy of α-MSH fragments and derivatives compared to parent α-MSH (anti-inflammatory and/or antipyretic properties); details: discovered by the inventors; no method or data given
Text: It is contemplated that derivatives of α-MSH will have analogous function. It is understood that derivatives of α-MSH means functionally equivalent peptides. […] Thus, α-MSH derivative would include, among others, the partial segments of the 13 amino acid peptide. Specifically, α-MSH is composed of the following sequence of amino acids: SYSMEHFRWGKPV (SEQ ID. NO. 1). […] These derivatives of the parent α-MSH are functional equivalents.

[3] = has been shown; no method given; cited from earlier work
[4] = system: IL-1β, IL-6 and TNF-α production by celiac mucosa; assay: Spontaneous (non-stimulated) cytokine production by duodenal mucosa specimens incubated 24 h in vitro, with or without synthetic α-MSH; format: cell-based, human; details: α-MSH 10^−5 M in incubation medium, no gliadin
Text: (§1) Four biopsy specimens from the distal duodenum were obtained during upper gastrointestinal endoscopy. Two of such specimens were fixed in 10% formalin and paraffin embedded for standard histological examination. The remaining two specimens from each subject were available for this research and were allocated for either 1) RT-PCR and immunohistochemical studies (N=20: 9 celiac, 7 celiac on diet, 4 normal); 2) cytokine production in vitro in the presence or absence of α-MSH(N=22: 11 celiac, 6 celiac on diet, 5 normal); or 3) cytokine production in vitro after gliadin stimulation in the presence or absence of α-MSH(N=25: 14 celiac, 6 celiac on diet, 5 normal).
(§2) A series of 47 specimen pairs were used to evaluate cytokine production by celiac mucosa in vitro and the influence of α-MSH on such production. […]
(§3) α-MSH was measured using a double-antibody radioimmunoassay (RIA) method (Eurodiagnostica, Malmo, Sweden); the sensitivity calculated from a decrease in binding of 2 SD in the zero standard was 4.8 pg/ml and the cross-reactivity with other POMC peptides (ACTH [1-24], ACTH [1-39], β-MSH, γ-MSH) is <0.002%. IL-1β, IL-6, and TNF-α were determined using commercial ELISA methods (Amersham Pharmacia Biotech, Little Chalfont, UK).
(§4) Values were expressed as means±SEM. […]

[5] = system: IL-6 production by gliadin-stimulated duodenal mucosa; assay: Gliadin-stimulated cytokine production by duodenal mucosa specimens incubated 24 h in vitro, with or without synthetic α-MSH; format: cell-based, human; details: co-incubation with α-MSH 10^−5 M, controls, untreated celiac and treated celiac patients (all groups), ELISA
Text: as §1, §2, §3, §4

fever = details: compared with α-MSH; cited from earlier work

Substance: Ac-[D-K11]-α-MSH 11-13-NH2
- Potency relative to the L-form of the tripeptide α-MSH (11-13) [1]: same general potency

Substance: His-DNle-Arg-Trp-Phe-Lys-Pro-Val (H[dNle]RWFKPV)
- Potency over the parent α-MSH and its derivatives [2]: increased potency

Substance: KPV
- Potency/efficacy compared to parent α-MSH [3]: as potent or more potent than the parent α-MSH

Substance: SYSMEHFRWGKPV [α-MSH, 13 amino acid peptide produced by post-translational processing of pro-opiomelanocortin; synthetic peptide used in the tests]
- Non-stimulated 24 h production of IL-1β, IL-6 and TNF-α by celiac mucosa after addition of α-MSH [4]: no change
- IL-6 production/release in supernatants of gliadin-stimulated duodenal specimens [5]: significantly decreased; also recorded: substantial reduction; also recorded: significantly reduced; also recorded: statistically significant inhibition

Substance: [Nle^4,D-Phe^7]-α-MSH
- Potency in reducing fever relative to the parent peptide α-MSH (fever): approximately ten times more potent
